These results are taken from ChEMBL document CHEMBL3745709, “Synthesis of novel ethyl 1-ethyl-6-fluoro-7-(fatty amido)-1,4-dihydro-4-oxoquinoline-3-carboxylate derivatives and their biological evaluation” (Bioorg Med Chem Lett, 2016).

The subject of data set [1] is Raoultella planticola. In words: Antibacterial activity against Klebsiella planticola MTCC 530 assessed as inhibition zone after 24 hrs at 30 degC by well diffusion method. It is filed as functional. The following applies: MTCC 530, 24 h.
The nature of data set [2]: Antioxidant activity assessed as DPPH free radical scavenging activity. It counts as physicochemical.
In data set [3] the test system is Staphylococcus aureus. In words: Antibacterial activity against Staphylococcus aureus MTCC 96 […] after 24 hrs at 30 degC by well diffusion method. As to conditions: MTCC 96, 24 h; call rule not given here. It is filed as functional.
In data set [4] the test system is Candida albicans. The data set can be described thus: Antifungal activity against Candida albicans MTCC 3017 […] after 24 hrs at 30 degC by well diffusion method. It is filed as functional. As to conditions: MTCC 3017, 24 h.
For data set [5], the system named is Micrococcus luteus. In words: Antibacterial activity against Micrococcus luteus MTCC 2470 assessed as inhibition zone after 24 hrs at 30 degC by well diffusion method. It counts as functional. As to conditions: MTCC 2470, 24 h.
For data set [6], the system named is Bacillus subtilis. The data set can be described thus: Antibacterial activity against Bacillus subtilis MTCC 121 assessed as inhibition zone after 24 hrs at 30 degC by well diffusion method. It is filed as functional. As to conditions: MTCC 121, 24 h.
In data set [7] the test system is Staphylococcus aureus. In words: Antibacterial activity against Staphylococcus aureus MLS-16 MTCC 2940 assessed as inhibition zone after 24 hrs at 30 degC by well diffusion method. The following applies: MLS-16 MTCC 2940, 24 h. It is filed as functional.
The test system of data set [8] is Pseudomonas aeruginosa. The data set can be described thus: Antibacterial activity against Pseudomonas aeruginosa MTCC 2453 assessed as inhibition zone after 24 hrs at 30 degC by well diffusion method. It is filed as functional. The following applies: MTCC 2453, 24 h.
The subject of data set [9] is Escherichia coli. The data set can be described thus: Antibacterial activity against Escherichia coli MTCC 739 assessed as inhibition zone after 24 hrs at 30 degC by well diffusion method. The following applies: MTCC 739, 24 h. It counts as functional.
Data set [10] in a line: Cytotoxicity against human SKOV3 cells assessed as reduction in cell viability by MTT assay. As to conditions: SK-OV-3. It counts as functional, cell-based.
Data set [11] relates to A549. In words: Cytotoxicity against human A549 cells assessed as reduction in cell viability by MTT assay. It counts as functional, cell-based.
In data set [12] the test system is MCF7. In words: Cytotoxicity against human MCF7 cells assessed as reduction in cell viability by MTT assay. It is filed as functional, cell-based.
The nature of data set [13]: Cytotoxicity against human DU145 cells assessed as reduction in cell viability by MTT assay. It is filed as functional, cell-based. The following applies: DU-145.
A short description of data set [14]: Cytotoxicity against human IMR90 cells assessed as reduction in cell viability by MTT assay. It counts as cell-based. As to conditions: IMR-90.
The test system of data set [15] is Candida albicans. In words: Antifungal activity against Candida albicans MTCC 854 assessed as inhibition zone after 24 hrs at 30 degC by well diffusion method. It is filed as functional. The following applies: MTCC 854, 24 h.
Data set [16] concerns Candida albicans. The data set can be described thus: Antifungal activity against Candida albicans MTCC 7315 assessed as inhibition zone after 24 hrs at 30 degC by well diffusion method. It is filed as functional. As to conditions: MTCC 7315, 24 h.
Data set [17] has as its system Candida albicans. In words: Antifungal activity against Candida albicans MTCC 183 assessed as inhibition zone after 24 hrs at 30 degC by well diffusion method. It counts as functional. The following applies: MTCC 183, 24 h.
For data set [18], the system named is Candida albicans. The data set can be described thus: Antifungal activity against Candida albicans MTCC 1637 assessed as inhibition zone after 24 hrs at 30 degC by well diffusion method. As to conditions: MTCC 1637, 24 h. It counts as functional.
Data set [19] concerns [Candida] aaseri. The data set can be described thus: Fungicidal activity against Candida aaseri MTCC 1962 assessed as microbial killing after 24 hrs. It is filed as functional. The following applies: Yamadazyma aaseri, MTCC 1962, 24 h.
The subject of data set [20] is Candida albicans. The data set can be described thus: Antifungal activity against Candida albicans MTCC 3958 assessed as inhibition zone after 24 hrs at 30 degC by well diffusion method. As to conditions: MTCC 3958, 24 h. It counts as functional.
Data set [21] deals with Candida albicans. In words: Antifungal activity against Candida albicans MTCC 227 assessed as inhibition zone after 24 hrs at 30 degC by well diffusion method. It is filed as functional. As to conditions: MTCC 227, 24 h.
Data set [22] concerns [Candida] aaseri. The data set can be described thus: Antifungal activity against Candida aaseri MTCC 1962 assessed as inhibition zone after 24 hrs at 30 degC by well diffusion method. It counts as functional. The following applies: Yamadazyma aaseri, MTCC 1962, 24 h.
In data set [23] the test system is Nakaseomyces glabratus. The data set can be described thus: Fungicidal activity against Candida glabrata MTCC 3019 assessed as microbial killing after 24 hrs. It is filed as functional. As to conditions: MTCC 3019, 24 h.
Data set [24] concerns Nakaseomyces glabratus. The data set can be described thus: Antifungal activity against Candida glabrata MTCC 3019 assessed as inhibition zone after 24 hrs at 30 degC by well diffusion method. It counts as functional. The following applies: MTCC 3019, 24 h.
The test system of data set [25] is Candida albicans. In words: Antifungal activity against Candida albicans MTCC 3018 assessed as inhibition zone after 24 hrs at 30 degC by well diffusion method. It counts as functional. The following applies: MTCC 3018, 24 h.
Data set [26] relates to Pichia kudriavzevii. In words: Antifungal activity against Candida krusei MTCC 3020 assessed as inhibition zone after 24 hrs at 30 degC by well diffusion method. It counts as functional. As to conditions: MTCC 3020, 24 h.
The test system of data set [27] is Pichia sporocuriosa. In words: Fungicidal activity against Issatchenkia hanoiensis MTCC 4755 assessed as microbial killing after 24 hrs. It is filed as functional. The following applies: MTCC 4755, 24 h.
Data set [28] deals with Candida albicans. In words: Fungicidal activity against Candida albicans MTCC 3958 assessed as microbial killing after 24 hrs. It is filed as functional. The following applies: MTCC 3958, 24 h.
Data set [29] concerns Candida parapsilosis. The data set can be described thus: Antifungal activity against Candida parapsilosis MTCC 1744 assessed as inhibition zone after 24 hrs at 30 degC by well diffusion method. It counts as functional. The following applies: Lodderomyces parapsilosis, MTCC 1744, 24 h.
For data set [30], the system named is Candida albicans. The data set can be described thus: Antifungal activity against Candida albicans MTCC 4748 assessed as inhibition zone after 24 hrs at 30 degC by well diffusion method. As to conditions: MTCC 4748, 24 h. It is filed as functional.
In data set [31] the test system is Candida parapsilosis. The data set can be described thus: Fungicidal activity against Candida parapsilosis MTCC 1744 assessed as microbial killing after 24 hrs. It counts as functional. As to conditions: Lodderomyces parapsilosis, MTCC 1744, 24 h.
Data set [32] relates to Candida albicans. In words: Fungicidal activity against Candida albicans MTCC 4748 assessed as microbial killing after 24 hrs. It is filed as functional. As to conditions: MTCC 4748, 24 h.
The subject of data set [33] is Candida albicans. In words: Fungicidal activity against Candida albicans MTCC 1637 assessed as microbial killing after 24 hrs. It counts as functional. The following applies: MTCC 1637, 24 h.
Data set [34] relates to Pichia sporocuriosa. In words: Antifungal activity against Issatchenkia hanoiensis MTCC 4755 assessed as inhibition zone after 24 hrs at 30 degC by well diffusion method. It is filed as functional. As to conditions: MTCC 4755, 24 h.
Data set [35] relates to Candida albicans. The data set can be described thus: Fungicidal activity against Candida albicans MTCC 227 assessed as microbial killing after 24 hrs. It is filed as functional. As to conditions: MTCC 227, 24 h.
Data set [36] concerns Candida albicans. The data set can be described thus: Fungicidal activity against Candida albicans MTCC 7315 assessed as microbial killing after 24 hrs. It is filed as functional. The following applies: MTCC 7315, 24 h.
The test system of data set [37] is Candida albicans. In words: Fungicidal activity against Candida albicans MTCC 3018 assessed as microbial killing after 24 hrs. It is filed as functional. The following applies: MTCC 3018, 24 h.
The test system of data set [38] is Pichia kudriavzevii. In words: Fungicidal activity against Candida krusei MTCC 3020 assessed as microbial killing after 24 hrs. It is filed as functional. As to conditions: MTCC 3020, 24 h.
The test system of data set [39] is Candida albicans. In words: Fungicidal activity against Candida albicans MTCC 3017 assessed as microbial killing after 24 hrs. It counts as functional. As to conditions: MTCC 3017, 24 h.
Data set [40] relates to Candida albicans. The data set can be described thus: Fungicidal activity against Candida albicans MTCC 854 assessed as microbial killing after 24 hrs. As to conditions: MTCC 854, 24 h. It counts as functional.
Data set [41] relates to Candida albicans. The data set can be described thus: Fungicidal activity against Candida albicans MTCC 183 assessed as microbial killing after 24 hrs. It counts as functional. The following applies: MTCC 183, 24 h.

Converted amounts (≈) assume the structure as drawn.

On to `CCCCCCCC/C=C/CCCCCCCC(=O)Nc1cc2c(cc1F)c(=O)c(C(=O)OCC)cn2CC`, for which the MIC in data set [1], in data set [3], in [4], in [5], in [6] and in [7] was > 125 µg/mL each time. In addition, the minimum inhibitory concentration (MIC) in data set [8] and in data set [9] was > 125 µg/mL in each case. In addition, the EC50 in data set [2] was 750.7 µg/mL (≈ 1380 µM).

Regarding `CCCCCCCCCCCCCCCC(=O)Nc1cc2c(cc1F)c(=O)c(C(=O)OCC)cn2CC`, the minimal inhibitory concentration (MIC) in [1], in [3], in data set [4], in [5], in data set [6] and in data set [7] was > 125 µg/mL in each case. Besides, the MIC in [8] and in [9] was > 125 µg/mL throughout. Also, the concentration giving a half-maximal response (EC50) entry in [2] is “Not Active”. Further, the IC50 in data set [10] amounted to 17.8 µM; in data set [11], 24.3 µM; in data set [12] it was 18.6 µM; in data set [13] it was 25.2 µM.

On to `Cc1c(C)c2c(c(C)c1O)CC[C@@](C)(CCC[C@H](C)CCC[C@H](C)CCCC(C)C)O2` [ALPHA-TOCOPHEROL], for which the EC50 in data set [2] was 10.4 µg/mL (≈ 24.1 µM).

With `Cc1cc(C(C)(C)C)c(O)c(C(C)(C)C)c1` [BUTYLATED HYDROXYTOLUENE], the concentration giving a half-maximal response (EC50) in data set [2] worked out at 28.5 µg/mL (≈ 129 µM).

For `COc1cccc2c1C(=O)c1c(O)c3c(c(O)c1C2=O)C[C@@](O)(C(=O)CO)C[C@@H]3O[C@H]1C[C@H](N)[C@H](O)[C@H](C)O1` [DOXORUBICIN], the figures for the concentration for half-maximal inhibition (IC50) in [10], in data set [14] and in data set [13] were 0.7 µM, 21.3 µM and 0.7 µM, respectively.

In the case of `Clc1ccc(COC(Cn2ccnc2)c2ccc(Cl)cc2Cl)c(Cl)c1` (stereo not given) [MICONAZOLE], the MIC in [15], in data set [16], in data set [4], in data set [17], in data set [18] and in [20] was 7.8 µg/mL (≈ 18.7 µM) in each case. Further, the MIC in data set [21], in data set [22], in data set [24], in data set [25], in data set [26] and in data set [29] was 7.8 µg/mL (≈ 18.7 µM) in each case. Also, the minimum inhibitory concentration (MIC) in [30] and in [34] was 7.8 µg/mL (≈ 18.7 µM) each time. For the same compound, the MFC is 7.8 µg/mL (≈ 18.7 µM) in data set [19]; 15.6 µg/mL (≈ 37.5 µM) in [23]; 7.8 µg/mL (≈ 18.7 µM) in data set [27]; 15.6 µg/mL (≈ 37.5 µM) in data set [28]; 7.8 µg/mL (≈ 18.7 µM) in [31]; 7.8 µg/mL (≈ 18.7 µM) in data set [32]. The MFC in data set [33] is 15.6 µg/mL (≈ 37.5 µM); in [35], 15.6 µg/mL (≈ 37.5 µM); in data set [36], 7.8 µg/mL (≈ 18.7 µM); in data set [37] it was 7.8 µg/mL (≈ 18.7 µM); in data set [38], 7.8 µg/mL (≈ 18.7 µM); in data set [39] it was 7.8 µg/mL (≈ 18.7 µM). In addition, the values for the MFC in [40] and in data set [41] were 15.6 µg/mL (≈ 37.5 µM) and 7.8 µg/mL (≈ 18.7 µM), respectively.
